Measurements taken from patent publication US20110190492A1, “DIAGNOSTIC PROBE FOR CONFORMATION DISEASE” (TOHOKU UNIVERSITY, priority 2005, published 2011).

Key:
amyloid β protein = molecular target: T1, amyloid β protein (Homo sapiens, UniProt P05067); assay: Staining test on a brain section of an Alzheimer disease patient (amyloid β protein); assay type: binding, human (Alzheimer disease patient); conditions: 100 μM compound in 50% ethanol, 10 minutes, fluorescence microscopy
T1 construct: from tissue; host or cells: paraffin-embedded human brain sections (temporal lobe, hippocampus) of Alzheimer disease patients
Source text: (1) Brain specimens at the temporal lobe and the hippocampus of patients to which a definitive diagnosis of Alzheimer disease had been given, and those of normal senile persons were used. The specimens were given by our coworker, Fukushimura Hospital, Longevity Medicine Institute, and we were given their consent of use of the specimens for our study purpose by the bereaved of the patients (Fukushimura Hospital Ethical Review Board Approval No. 20).
(2) The paraffin-embedded brain tissue was cut into slices having a thickness of 6 μm or 8 μm, and extended and dried on a slide. The paraffin brain section was processed for paraffin removal in xylene twice for 10 minutes, 100% ethanol twice for 5 minutes, 90% ethanol for 5 minutes and running water for 10 minutes in that order.
(3) For pretreatment prior to the staining treatment with a compound of the invention, the sections were processed for autofluorescence removal with lipofuscin. First, the paraffin-removed sections were dipped in 0.25% KMnO4 solution for 20 minutes. These were washed with PBS, twice for 2 minutes, then dipped in 0.1% K2S2O5/oxalic acid solution for about 5 seconds, and then further washed with PBS, three times for 2 minutes.
(4) About 150 μl of a 100 μM solution of a compound of the invention dissolved in 50% ethanol was dropwise applied to the section and reacted for 10 minutes. After dipped five times in tap water, the section was entrapped with Fluor Save Reagent (Calbiochem), and analyzed through microscopy with a fluorescence microscope (Nikon, Eclipse 80i). The images were taken with a digital camera (Nikon Dxm 1200F or Photometrics' Cool SNAP ES).

[1] = system: histidine-requiring Salmonella typhimurium TA100 and TA98 strains; assay: Mutagenicity test (reverse mutation test); assay type: cell-based
Procedure: In view of their use, it is desirable that the compounds of the invention have no mutagenicity or have little mutagenicity to a level causing no problem. For investigating the gene mutagenesis of the compounds of the invention, herein carried out was a reverse mutation test with histidine-requiring Salmonella typhimurium TA100 and TA98 strains. Two tests were carried out. One is a test for dose determination test; and the other is for mutagenicity.
The test methods and the mutagenicity of the compounds of the invention are mentioned below. In the dose determination test, six doses of 0.160, 0.800, 4.00, 20.0, 100 and 500 μg/plate (common ratio 5) were tried.
As a result of the dose determination test, when the mutagenicity of the test compound was admitted, then the actual test for mutagenicity was carried out, using the dose capable of giving an accurate dose-reaction curve. When no mutagenicity of the test compound was admitted in the dose determination test and when the growth inhibition of the test cells was admitted therein, then the dose to present the growth inhibition was taken as the maximum dose; and when the growth inhibition was not admitted, then a dose of 5000 μg/plate was taken as the maximum dose. With that, the actual test for mutagenicity was carried out on the level of 6 doses (common ratio 2).
First, a test compound was dissolved or suspended in DMSO, then diluted in order to prepare test compound liquids having a varying concentration.
100 μl of a test compound liquid or a negative control (DMSO) solution was put into a sterilized test tube. Then, for the case in the absence of a metabolic activation system (−S9mix), 500 μl of 0.1 mol/liter sodium-phosphate buffer (pH 7.4) was added to it; and for the case in the presence of a metabolic activation system (+S9mix), 500 μl of S9mix was added to it.
Next, 100 μl of the test strain suspension that had been cultivated with shaking at 37° C. for 8 hours was added to it, and preincubated in a shaking thermostat at 37° C. for 20 minutes. After shaken, 2 ml of top agar was added to it, and the contents were mixed.
Next, the mixture was poured onto a minimal glucose agar plate medium (plate) and spread uniformly thereon, then the top agar was solidified, and the plate was transferred into a thermostat and incubated at 37° C. for 48 hours.
Then, the number of the colonies grown through reverse mutation was counted.
For counting it, […]. After area correction and miss-counting correction, the number of the colonies was computed. When the colony analyzer could not be used owing to the deposition of the test compound or the cell growth inhibition, then the number of the colonies was counted with the naked eye.
In case where the number of the colonies through reverse mutation increased two times or more that of the negative control and where the dose dependency or the reproducibility of the increase was admitted, then the tested sample was decided as positive. When the sample was decided as positive, then the relative activity that indicates the relative comparative value of the intensity of the mutagenicity of the test compound was obtained according to the following formula:
Relative Activity={(number of colonies per plate having the concentration)−(number of colonies per negative control plate)}/the value of concentration (mg/plate).

[2] = Acute toxicity test, intravenous administration to mice; assay type: in vivo; conditions: mice observed for 7 days
Procedure: The compounds of the invention were tested for their acute toxicity through intravenous administration thereof to mice. Four Crj:CD1 male mice formed one test group, and some test groups of those mice were used (the mean body weight of the mice of each group was from 31 to 32 g). A test compound was dissolved in a mixture of 1 N HCl, polyethylene glycol-400 and distilled water, or dissolved in DMSO, and then diluted with distilled water. This was administered to each mouse via its tail vein.

[3] = irrespective of the absence or presence of S9mix

T1 sequence (P05067 672-713 limits assumed): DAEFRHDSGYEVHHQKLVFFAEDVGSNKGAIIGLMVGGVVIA

| Compound | binding to amyloid β protein in the brain section of an Alzheimer disease patient (amyloid β protein) | also measured |
| --- | --- | --- |
| COc1ccccc1-c1nnc(-c2ccc(N3CCOCC3)cc2)o1 [THK-385] | bound to the amyloid β protein | – |
| N#CC(C#N)=Cc1ncc(/C=C/c2nc3ccc(OCC(CO)CF)cc3o2)s1 (centres unmarked) [THK-683] | – | relative activity [1, 3]: minus |
| CN(C)c1ccc(-c2nnc(-c3sc4cc(Cl)ccc4c3Cl)o2)cc1 [THK-262, [4-[5-(3,6-dichloro-benzo[b]thiophen-2-yl)-[1,3,4]oxadiazol-2-yl]-phenyl]-dimethylamine] | bound to the amyloid β protein | – |
| OCC(CF)Oc1ccc2nc(/C=C/c3cnc(N4CCCCC4)s3)oc2c1 (centres unmarked) [THK-713] | – | Maximum Permissible Dose [2]: ≧10 mg/kg; relative activity [1, 3]: minus |
| CN1CCN(c2ncc(/C=C/c3nc4ccc(OC(CO)CF)cc4o3)s2)CC1 (centres unmarked) [THK-707, (E)-6-[(1-fluoromethyl-2-hydroxy)ethoxy]-2-[2-[2-(4-methylpiperazin-1-yl)thiazol-5-yl]ethenyl]benzoxazole] | – | Maximum Permissible Dose [2]: ≧10 mg/kg; relative activity ([1]; in the presence of S9mix): weak |
| O=C1Nc2ccc(Cl)cc2/C1=C/c1ccc(N2CCOCC2)cc1 [THK-276, 5-chloro-3-(4-morpholin-4-yl-benzylidene)-1,3-dihydroindol-2-one] | bound to the amyloid β protein | – |
| FCCOc1ccc2nc(/C=C/c3cnc(N4CCOCC4)s3)oc2c1 [THK-525, 6-(2-fluoro-ethoxy)-2-[2-(2-morpholin-4-yl-thiazol-5-yl)-vinyl]-benzoxazole] | bound to the amyloid β protein | Maximum Permissible Dose [2]: ≧10 mg/kg; relative activity [1, 3]: minus |
| CC1CN2c3ccccc3C(C)(C)C2(/C=C/c2ccc(N(C)C)cc2)NC1=O (centres unmarked) [THK-559, 10a-[2-(4-dimethylamino-phenyl)-vinyl]-3,10,10-trimethyl-3,4,10,10a-tetrahydro-1H-pyrimido[1,2-a]indol-2-one] | bound to the amyloid β protein | – |
| OCC(CF)Oc1ccc2nc(/C=C/c3cnc(N4CCCCCC4)s3)oc2c1 (centres unmarked) [THK-765, (E)-6-[(1-fluoromethyl-2-hydroxy)ethoxy]-2-[2-[2-(homopiperidin-1-yl)thiazol-5-yl]ethenyl]benzoxazole] | – | Maximum Permissible Dose [2]: ≧10 mg/kg |
| CN(C)c1ccc(/C=C/C23NC(=O)CN2c2ccccc2C3(C)C)cc1 (centres unmarked) [THK-562] | bound to the amyloid β protein | – |
| CN(C)c1ccc(/C=C/C23NC(=O)CCN2c2ccc(Br)cc2C3(C)C)cc1 (centres unmarked) [THK-558, 8-bromo-10a-[2-(4-dimethylamino-phenyl)-vinyl]-10,10-dimethyl 1-3,4,10,10a-tetrahydro-1H-pyrimido[1,2-a]indol-2-one] | bound to the amyloid β protein | – |
| Cc1ccc2c(c1)C(C)(C)[C@@]1(/C=C/C=C/c3ccc(N(C)C)cc3)NC(=O)CCN21 (stereo in doubt) [THK-585, 10a-[4-(4-dimethylamino-phenyl)-buta-1,3-dienyl]-8,10,10-trimethyl-3,4,10,10a-tetrahydro-1H-pyrimido[1,2-a]indol-2-one] | bound to the amyloid β protein | – |
| CN(C)c1ccc(/C=C/C23NC(=O)CN2c2ccc(Br)cc2C3(C)C)cc1 (centres unmarked) [THK-556, 7-bromo-9a-[2-(4-dimethylamino-phenyl)-vinyl]-9,9-dimethyl-9,9a-dihydro-1H-imidazo[1,2-a]indol-2-one] | bound to the amyloid β protein | – |
| OCC(CF)Oc1ccc2nc(/C=C/c3cnc(N4CCCOC4)s3)oc2c1 (centres unmarked) [THK-757, (E)-6-[(1-fluoromethyl-2-hydroxy)ethoxy]-2-[2-[2-([1,3]oxadinan-3-yl)-thiazol-5-yl]ethenyl]benzoxazole] | – | Maximum Permissible Dose [2]: ≧10 mg/kg |
| C(=C\c1nc2c(ccc3ccccc32)s1)/c1ccc(N2CCOCC2)cc1 [THK-281, 2-[2-(4-morpholin-4-yl-phenyl)-vinyl]naphthol[1,2-d]thiazole] | bound to the amyloid β protein | – |
| N#C/C(=C\c1ccc(N2CCOCC2)o1)c1nc2ccccc2[nH]1 [THK-203, 2-(1H-benzimidazol-2-yl)-3-(5-morpholin-4-yl-furan-2-yl)-acrylonitrile] | bound to the amyloid β protein | – |
| OCC(CF)Oc1ccc2nc(/C=C/c3cnc(N4CCCOCC4)s3)oc2c1 (centres unmarked) [THK-766, (E)-6-[(1-fluoromethyl-2-hydroxy)ethoxy]-2-[2-(2-homomorpholinothiazol-5-yl)ethenyl]benzoxazole] | The white space arrow indicates amyloid β protein | Maximum Permissible Dose [2]: ≧10 mg/kg |
| CN1CCN(c2ccc(/C=C(\C#N)c3nc4ccccc4[nH]3)o2)CC1 [THK-207, 2-(1H-benzimidazol-2-yl)-3-[5-(4-methyl-piperazin-1-yl)-furan-2-yl]-acrylonitrile] | bound to the amyloid β protein | – |
| CN(C)c1ccc(/C=C\C=C2C(=O)c3ccccc3C2=O)cc1 [THK-248, 2-[3-(4-dimethylamino-phenyl)-allylidene]-indane-1,3-dione] | bound to the amyloid β protein | – |
| CC1(C)c2ccccc2N2CCC(=O)NC21/C=C/c1ccc(N2CCOCC2)cc1 (centres unmarked) [THK-336] | – | relative activity [1, 3]: minus |
| c1csc(-c2nnc(-c3ccc(N4CCOCC4)cc3)o2)c1 [THK-383, 4-[4-(5-thiophen-2-yl-[1,3,4]oxadiazol-2-yl)-phenyl]-morpholine] | bound to the amyloid β protein | – |
| O=C1Nc2ccc(Cl)cc2/C1=C/c1ccc(N2CCOCC2)s1 [THK-308, 5-chloro-3-(5-morpholin-4-yl-thiophen-2-ylmethylene)-1,3-dihydroindol-2-one] | bound to the amyloid β protein | – |
| CCN(CC)c1ccc(/C=C/C23NC(=O)CN2c2ccccc2C3(C)C)cc1 (centres unmarked) [THK-563] | bound to the amyloid β protein | – |
| Cc1ccc2c(c1)C(C)(C)C1(/C=C/C=C/c3ccc(N(C)C)cc3)NC(=O)CCN21 (centres unmarked) [THK-565, 10a-[4-(4-dimethylamino-phenyl)-buta-1,3-dienyl]-8,10,10-trimethyl-3,4,10,10a-tetrahydro-1H-pyrimido[1,2-a]indol-2-one] | bound to the amyloid β protein | – |
